Experimental data: US10780061B2, “Composition comprising farnesol and use thereof” (Daegu Gyongbuk Institute of Science and Technology, priority 2014, dated 2020)

Key:
[1] = system: succinic dehydrogenase (SDH); experiment: SDH staining (mitochondrial enzyme activity) of extensor digitorum longus muscle; assay type: in vivo, mouse
Method: Staining of succinic dehydrogenase (SDH) in the extensor digitorum longus muscle of a mouse administered with farnesol for 5 weeks is performed. This staining method is a method of analyzing mitochondrial activity by measuring activity of SDH which is an enzyme involved in the electron transport chain of mitochondria. Staining degree represents a content of oxidative muscle fiber. Frozen tissue sections are reacted in 0.2 M phosphate buffer (pH 7.4) containing […] sodium succinate and nitro blue tetrazolium (NBT) at 37° C. for 60 minutes, washed with distilled water, and then sealed, followed by observation. Further, farnesol is administered to mice in the same manner as in Section 4 of Example 2, except that 22-month-old mice are used instead of 5-month-old mice and administration is performed for 4 months instead of 5 weeks, and activity of a mitochondrial enzyme according to farnesol administration is analyzed in the extensor digitorum longus muscles of old mice.

[2] = system: injured tibialis anterior muscles; experiment: Histological staining of cardiotoxin-injured tibialis anterior muscles of old animals; assay type: in vivo, mouse; settings: 25-month-old mice, farnesol diet 2 weeks, 4 days after CTX injury
Method: 25-month-old mice are fed with a control diet or a farnesol-containing diet for 2 weeks, and then 2 ul of 10 uM cardiotoxin (CTX) per body weight (g) is directly injected into the muscle to induce muscle injury. After 4 days, muscles are frozen and sectioned, followed by histological staining.
Hematoxylin and eosin (H&E) staining and sirus red staining are used in histological staining. Because muscle fibrosis […] and muscle regeneration is active at 4 days after muscle injury, effect of farnesol administration may be determined by histological staining. H&E staining is performed to examine structural recovery of injury, and sirus red staining is performed to examine the presence of fibrosis. […] That is, the control old animal has more thicker fibrosis regions located between the fibers than the experimental old animal treated with farnesol.

AMPK and p38 MAPK = experiment: Immunoblot of pAMPK and pp38 in farnesol-treated C2C12 myoblasts; assay type: cell-based; settings: 0.1 μM farnesol, 48 hours
Method: The C2C12 myoblasts are cultured in DMEM containing 2% horse serum and 0.1 μM farnesol dissolved in DMSO for 48 hours. A control group is cultured in the same manner as above, except that only DMSO is added. Other culture conditions and immunoblot procedure are the same as those described in Section 1 of Example 2. PGC-1α, pAMPK, pp38 and basal forms thereof are subjected to immunoblotting.

PARIS [3] = experiment: PARIS protein and transcriptional levels in extensor digitorum longus muscles of old mouse; assay type: in vivo; settings: 24-month-old mouse, farnesol 5 weeks, vs old mouse without farnesol
PARIS [4] = molecular target: T1, PARIS (Mus musculus, UniProt Q3U133); experiment: Immunoprecipitation analysis for PARIS farnesylation in myoblasts; assay type: cell-based
T1 construct: endogenous in cells; host or cells: C2C12 myoblasts
T1 sequence (Q3U133 whole entry): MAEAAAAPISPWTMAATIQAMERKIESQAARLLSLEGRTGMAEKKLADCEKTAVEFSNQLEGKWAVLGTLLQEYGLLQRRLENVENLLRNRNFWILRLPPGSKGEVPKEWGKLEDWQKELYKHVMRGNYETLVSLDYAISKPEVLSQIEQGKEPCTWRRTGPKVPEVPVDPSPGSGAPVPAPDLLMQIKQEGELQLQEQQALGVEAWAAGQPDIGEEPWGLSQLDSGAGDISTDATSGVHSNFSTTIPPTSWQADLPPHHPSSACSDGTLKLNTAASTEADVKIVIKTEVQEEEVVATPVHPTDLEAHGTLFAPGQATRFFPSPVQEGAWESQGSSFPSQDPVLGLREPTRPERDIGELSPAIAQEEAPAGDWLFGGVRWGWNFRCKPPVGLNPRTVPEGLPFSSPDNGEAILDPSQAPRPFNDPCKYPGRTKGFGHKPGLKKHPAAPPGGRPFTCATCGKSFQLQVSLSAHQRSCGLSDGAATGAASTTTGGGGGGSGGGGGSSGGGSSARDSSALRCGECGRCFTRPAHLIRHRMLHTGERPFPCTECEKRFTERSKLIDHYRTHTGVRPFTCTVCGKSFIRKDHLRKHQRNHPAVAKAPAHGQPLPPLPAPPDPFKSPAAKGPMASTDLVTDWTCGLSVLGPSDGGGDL
Method: C2C12 cells are cultured in the presence of farnesol, and cell lysate is subjected to immunoprecipitation. As an experimental group, C2C12 cells are cultured in the presence of 10 uM farnesol for 24 hours, and also cultured in the differentiation medium described in Section 2 of Example 1 for 24 hours by adding 10 uM farnesol according to a culturing schedule, that is, at 0 day, 1 day, 2 days, 3 days, and 4 days (hereinafter, also referred to as ‘D0, D1, D2, D3 and D4’ or ‘D0-D04’). Next, a cell lysis buffer (20 mM Tris-HCl, pH 8, 150 mM NaCl, 1% Triton X, Proteinase Inhibitor) is added to the harvested cells, and cell lysis is allowed under refrigeration for 60 minutes, followed by centrifugation at 13,000 rpm for 20 minutes. A supernatant is removed by 50 uL of protein A/G-agarose in advance, and a target protein antibody is reacted for 12 hours or longer. The resultant is mixed with protein A/G-agarose beads, and stirred for 1 hour. The beads are washed with a cold lysis buffer at a low concentration three times to remove abnormal protein binding. The obtained sample is mixed with a 2×SDS sample buffer (0.125 M Tris-HCl (pH 6.8), 4% SDS, 10% β-mercaptoethanol, 18% glycerol, and 0.1% Bromophenol Blue), and then electrophoresed on 8% SDS-PAGE. […]

PARIS, PGC-1α [5] = experiment: Immunoprecipitation for PGC-1α expression and PARIS-farnesylation, short-term high fat diet; assay type: in vivo, mouse; settings: high fat diet with 0.5% compound, 5 days, gastrocnemius muscles
Description: (§1) To prepare the PGC-1α-inhibited model, 3-month-old mouse (female, body weight of 20 g) is fed with high fat diet, in which fat is increased to 60%, compared to a negative control group, for 5 days (short-term effect) or 3 months (long-term effect). The negative control group is fed with a general diet. Farnesol is mixed in the high fat diet at a content of 0.5% (weight of farnesol/weight of diet). A positive control group is fed with high fat diet containing a type II diabetes drug, metformin at a content of 0.5% (weight of metformin/weight of diet). Mice are fed with the general diet, the high fat diet, and the high fat diet containing farnesol or metformin for 3 months, and then hind limbs are removed to analyze muscle differentiation and mitochondrial enzyme activity.
The effects of high fat diet and farnesol and metformin on PGC-1α induction by PARIS-farnesylation are evaluated. To analyze effect of short-term high fat diet, mice are fed with the above conditions for 5 days. Immunoblotting of PGC-1α and PARIS in gastrocnemius muscles of the mice is performed.
In this regard, PARIS-farnesylation is normalized to the immunoprecipitated PARIS expression level.

PARIS, PGC-1α [6] = experiment: Western blotting of hind limb muscles, high fat diet for 3 months; assay type: in vivo, mouse; settings: high fat diet with 0.5% compound
Description: as §1

## CC(C)=CCC/C(C)=C/CC/C(C)=C/CO [farnesol, (2E,6E)-3,7,11-trimethyldodeca-2,6,10-trien-1-ol]
[1]; 5-month-old mice, farnesol 5 weeks
  percentage of the area stained dark (SDH activity) in EDL: remarkably increased
[1]; 22-month-old mice, farnesol 4 months
  percentage of the area stained dark (SDH activity) in EDL: remarkably increased
[2]
  percentage of blue and red stained muscle fibers (sirus red staining): remarkably reduced
  regenerative region and fibrotic area: a widespread regenerative region and a narrow fibrotic area
  size of muscle fibers stained red (H&E staining): increased
AMPK and p38 MAPK
  pAMPK level: does not affect
  pp38 level: does not affect
PARIS [3]
  protein expression level of PARIS in EDL: remarkably decreased
  transcriptional level of PARIS in EDL: remarkably decreased
PARIS [4]; 10 uM farnesol, D0-D4
  farnesylated PARIS level: further increases
PARIS [4]; 10 uM farnesol-treated myoblasts
  PGC-1α expression: increased
PARIS, PGC-1α [5]
  reduction in PARIS-farnesylation by high fat diet: inhibited
  reduction in PGC-1α expression by high fat diet: inhibited
PARIS, PGC-1α [6]
  decreased PGC-1α expression by high fat diet: inhibited
  increased PARIS level by high fat diet: inhibited
